Measurements as given in article PMC5926067 (Japanese Journal of Cancer Research : Gann, 1999).

What was measured:
Format in all cases: biochemical
interstitial collagenase = biological target: T1, interstitial collagenase (Homo sapiens, UniProt P03956); experiment: fluorescence-labeled collagen degradation assay, partially purified enzyme
T1 sequence (P03956 100-469): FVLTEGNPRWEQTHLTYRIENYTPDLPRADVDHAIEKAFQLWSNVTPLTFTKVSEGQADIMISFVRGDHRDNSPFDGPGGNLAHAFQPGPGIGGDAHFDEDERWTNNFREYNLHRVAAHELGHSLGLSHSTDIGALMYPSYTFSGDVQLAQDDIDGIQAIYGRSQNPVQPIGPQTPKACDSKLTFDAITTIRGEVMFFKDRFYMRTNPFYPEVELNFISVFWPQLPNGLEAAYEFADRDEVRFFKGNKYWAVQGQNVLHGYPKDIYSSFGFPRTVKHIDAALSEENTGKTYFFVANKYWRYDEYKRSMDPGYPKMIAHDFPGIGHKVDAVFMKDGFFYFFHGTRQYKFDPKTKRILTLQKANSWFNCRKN

gelatinase A (MMP-2) = biological target: T2, gelatinase A (MMP-2) (Homo sapiens, UniProt P08253); experiment: fluorescence-labeled gelatin degradation assay, partially purified enzyme
T2 sequence (P08253 110-660): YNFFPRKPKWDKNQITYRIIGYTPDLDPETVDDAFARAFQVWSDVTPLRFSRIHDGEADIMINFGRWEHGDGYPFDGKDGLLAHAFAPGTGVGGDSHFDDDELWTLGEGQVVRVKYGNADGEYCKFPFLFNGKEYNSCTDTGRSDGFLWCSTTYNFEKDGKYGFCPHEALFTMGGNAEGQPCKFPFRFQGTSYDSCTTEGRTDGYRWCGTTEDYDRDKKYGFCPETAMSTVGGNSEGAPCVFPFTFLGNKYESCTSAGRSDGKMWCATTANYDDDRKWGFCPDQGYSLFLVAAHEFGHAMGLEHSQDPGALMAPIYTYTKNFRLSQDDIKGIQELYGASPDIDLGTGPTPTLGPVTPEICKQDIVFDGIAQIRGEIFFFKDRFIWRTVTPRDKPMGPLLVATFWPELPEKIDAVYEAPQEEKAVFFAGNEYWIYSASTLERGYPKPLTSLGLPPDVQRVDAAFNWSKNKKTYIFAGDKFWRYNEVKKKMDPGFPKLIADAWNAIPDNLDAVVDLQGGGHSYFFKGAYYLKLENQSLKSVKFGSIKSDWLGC

stromelysin = stromelysin (Mus musculus, UniProt P28862); experiment: fluorescence-labeled casein degradation assay, partially purified enzyme
gelatinase B (MMP-9) = gelatinase B (MMP-9) (Homo sapiens, UniProt P14780); experiment: fluorescence-labeled gelatin degradation assay, partially purified enzyme
Chain of gelatinase B (MMP-9) (P14780 107-707): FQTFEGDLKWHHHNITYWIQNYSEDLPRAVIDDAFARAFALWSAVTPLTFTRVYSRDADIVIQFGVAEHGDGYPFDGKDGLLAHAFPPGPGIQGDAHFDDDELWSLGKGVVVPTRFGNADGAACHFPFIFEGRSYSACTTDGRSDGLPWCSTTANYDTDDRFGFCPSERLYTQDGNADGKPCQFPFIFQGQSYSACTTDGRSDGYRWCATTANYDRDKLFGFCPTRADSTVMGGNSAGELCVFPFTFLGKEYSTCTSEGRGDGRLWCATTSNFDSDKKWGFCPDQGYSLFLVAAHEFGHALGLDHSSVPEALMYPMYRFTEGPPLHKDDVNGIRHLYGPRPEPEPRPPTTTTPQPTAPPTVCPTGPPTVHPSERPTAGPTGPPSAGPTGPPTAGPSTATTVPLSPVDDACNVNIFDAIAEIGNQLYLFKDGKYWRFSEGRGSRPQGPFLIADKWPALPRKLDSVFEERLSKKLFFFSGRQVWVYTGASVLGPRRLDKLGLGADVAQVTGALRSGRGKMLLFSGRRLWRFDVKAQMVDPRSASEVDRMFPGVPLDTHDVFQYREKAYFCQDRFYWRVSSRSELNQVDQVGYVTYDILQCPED

Chain of stromelysin (P28862 100-477): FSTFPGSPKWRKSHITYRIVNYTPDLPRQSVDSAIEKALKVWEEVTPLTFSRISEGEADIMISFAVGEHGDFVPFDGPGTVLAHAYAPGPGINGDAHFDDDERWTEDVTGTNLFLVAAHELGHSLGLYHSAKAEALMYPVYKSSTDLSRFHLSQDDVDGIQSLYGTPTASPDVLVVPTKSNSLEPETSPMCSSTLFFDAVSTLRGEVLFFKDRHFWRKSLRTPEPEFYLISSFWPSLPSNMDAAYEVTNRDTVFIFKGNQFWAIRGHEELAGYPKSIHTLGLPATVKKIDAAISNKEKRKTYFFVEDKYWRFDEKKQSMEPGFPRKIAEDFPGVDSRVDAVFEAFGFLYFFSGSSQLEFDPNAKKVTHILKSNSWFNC

- IC50 (interstitial collagenase): 700 nM
- IC50 (gelatinase A (MMP-2)): 5000 nM
- IC50 (stromelysin): 2000 nM
- IC50 (gelatinase B (MMP-9)): 500 nM
Compound: CON1C(=O)[C@@H](NC(=O)[C@@H](CC(=O)NO)CC(C)C)Cc2ccccc21 [OPB-3206, 3S-[4-(N-hydroxyamino)-2R-isobutylsuccinyl]amino-1-methoxy-3,4-dihydrocarbostyril]
